Assay results as given in article PMC9081605, “A High-Throughput Toxicity Screen of 42 Per- and Polyfluoroalkyl Substances (PFAS) and Functional Assessment of Migration and Gene Expression in Human Placental Trophoblast Cells” (Frontiers in Toxicology, 2022).

Test system: JEG-3 cells
Test: Gene expression, custom NanoString code set of 46 genes
Format: cell-based, human
Procedure: JEG-3 cells were seeded at a density of 80,000 cells per well in six well plates and allowed to adhere overnight (24 h). The following day, media was removed and replaced with exposure media, then returned to the incubator for 24 h. The test compounds included non-cytotoxic concentrations of PFOA (0, 1, and 100 µM) and GenX (0, 3, 300 µM). These test compounds were selected a priori due to their high public health relevance. Each 6 well plate contained the three concentrations for either PFOA or GenX, with each condition in technical duplicate. Plates containing these PFOA or GenX exposure conditions were replicated three times (N = 3). After 24 h, exposure media was aspirated and cells were washed in ice cold 1xPBS, which was then aspirated. Each well received 500 µl of TRIzol reagent (Thermo Fisher Scientific, MA, United States) and cells were harvested in the TRIzol using a cell scraper. Technical duplicate wells within a plate were combined to generate a single sample of ∼1,000 µl. RNA was isolated from the resulting cellular homogenate using RNeasy Mini Kits (Qiagen, Hilden, Germany). Isolated RNA quality was validated and concentration determined using a NanoDrop 2000 (Thermo Fisher Scientific, MA, United States). 100 ng of mRNA from each sample was then analyzed using a custom gene expression code set (NanoString, Seattle, WA, United States). The custom code set included 46 genes selected for their downstream involvement in placental development (e.g., WNT4), endocrine signaling (e.g., CYP19A1), fetal growth/nutrient sensing (e.g., IGF2), inflammation (e.g., IL6), oxidative stress (e.g., SOD1, GPX1), and xenobiotic transport/metabolism (e.g., ABCG2, MRP3).
Gene expression data were quantified using the nCounter Digital Analyzer (NanoString, Seattle, WA, United States) and raw and adjusted counts were generated with nSolver (v4.0) software (NanoString, Seattle, WA, United States). Data were adjusted utilizing the manufacturer’s positive and negative experimental control probes, as well as housekeeping genes (ACTA2, ACTB, B2M, LDHA, RNA18S5, and ROLYR2L). All samples passed nSolver’s initial QA/QC controls and replicates were very well correlated with R ^2 values greater than 0.99. Adjusted data were then imported into Partek v7.0 (St. Louis, MO, United States), log2 transformed and quantile normalized for further QA/QC and statistical analyses. Genes with mRNA counts below the detection threshold of 20 were removed due to suboptimal probe hybridization (N = 2 genes for GenX; GH2 and IGFBP5). Fold change values were analyzed by ANOVA with post hoc false discovery rate adjustment (FDR) of p < 0.1. Normalized gene expression values were visualized using pheatmap with Euclidean clustering of genes and concentration groups ([Kolde and Kolde, 2015]).

N.O=C(O)C(F)(OC(F)(F)C(F)(F)C(F)(F)F)C(F)(F)F (centres unmarked) [Ammonium perfluoro-2-methyl-3-oxahexanoate]
11BHSD2 gene expression, fold change over untreated control (3 µM, 24 h): -1.00
17BHSD1 gene expression, fold change over untreated control (3 µM, 24 h): -1.11
AHR gene expression, fold change over untreated control (3 µM, 24 h): 1.04
AHRR gene expression, fold change over untreated control (3 µM, 24 h): 1.18
CAT gene expression, fold change over untreated control (3 µM, 24 h): 1.02
CGB5 gene expression, fold change over untreated control (3 µM, 24 h): 1.08
COX2 gene expression, fold change over untreated control (3 µM, 24 h): 1.27
CTNNB1 gene expression, fold change over untreated control (3 µM, 24 h): 1.00
CYP1A1 gene expression, fold change over untreated control (3 µM, 24 h): -1.22
CYP2E1 gene expression, fold change over untreated control (3 µM, 24 h): -1.26
CYP3A5 gene expression, fold change over untreated control (3 µM, 24 h): 1.19
CYP3A7 gene expression, fold change over untreated control (3 µM, 24 h): 1.01
CYP19A1 gene expression, fold change over untreated control (3 µM, 24 h): -1.03
EGFR gene expression, fold change over untreated control (3 µM, 24 h): 1.00
ENG gene expression, fold change over untreated control (3 µM, 24 h): 1.04
ESRRA gene expression, fold change over untreated control (3 µM, 24 h): 1.00
ESRRG gene expression, fold change over untreated control (3 µM, 24 h): -1.16
GHR gene expression, fold change over untreated control (3 µM, 24 h): 1.15
GPER1 gene expression, fold change over untreated control (3 µM, 24 h): -1.02
HIF1A gene expression, fold change over untreated control (3 µM, 24 h): 1.00
IGF2 gene expression, fold change over untreated control (3 µM, 24 h): 1.00
IGFR1 gene expression, fold change over untreated control (3 µM, 24 h): -1.02
IGFR2 gene expression, fold change over untreated control (3 µM, 24 h): 1.04
IL6 gene expression, fold change over untreated control (3 µM, 24 h): -1.23
MRP1 gene expression, fold change over untreated control (3 µM, 24 h): -1.05
MRP2 gene expression, fold change over untreated control (3 µM, 24 h): 1.05
MRP3 gene expression, fold change over untreated control (3 µM, 24 h): 1.07
NFKB1 gene expression, fold change over untreated control (3 µM, 24 h): 1.03
NFKB2 gene expression, fold change over untreated control (3 µM, 24 h): -1.07
NR3C1 gene expression, fold change over untreated control (3 µM, 24 h): 1.00
PGF gene expression, fold change over untreated control (3 µM, 24 h): 1.00
PMM1 gene expression, fold change over untreated control (3 µM, 24 h): -1.05
ROLYR2L gene expression, fold change over untreated control (3 µM, 24 h): 1.00
SLC2A1 gene expression, fold change over untreated control (3 µM, 24 h): -1.04
SOD1 gene expression, fold change over untreated control (3 µM, 24 h): 1.00
TGFB1 gene expression, fold change over untreated control (3 µM, 24 h): -1.04
VEGFA gene expression, fold change over untreated control (3 µM, 24 h): 1.04
VEGFB gene expression, fold change over untreated control (3 µM, 24 h): 1.00
WNT4 gene expression, fold change over untreated control (3 µM, 24 h): 1.08
WNT6 gene expression, fold change over untreated control (3 µM, 24 h): -1.09
WNT7B gene expression, fold change over untreated control (3 µM, 24 h): 1.07
mTOR gene expression, fold change over untreated control (3 µM, 24 h): 1.00
11BHSD2 gene expression, fold change over untreated control (300 µM, 24 h): -1.01
AHR gene expression, fold change over untreated control (300 µM, 24 h): -1.04
AHRR gene expression, fold change over untreated control (300 µM, 24 h): 1.19
CAT gene expression, fold change over untreated control (300 µM, 24 h): -1.05
CGB5 gene expression, fold change over untreated control (300 µM, 24 h): 1.11
COX2 gene expression, fold change over untreated control (300 µM, 24 h): 1.27
CYP1A1 gene expression, fold change over untreated control (300 µM, 24 h): -1.16
CYP2E1 gene expression, fold change over untreated control (300 µM, 24 h): 1.04
CYP3A5 gene expression, fold change over untreated control (300 µM, 24 h): -1.83
CYP3A7 gene expression, fold change over untreated control (300 µM, 24 h): -1.25
CYP19A1 gene expression, fold change over untreated control (300 µM, 24 h): -1.29
ENG gene expression, fold change over untreated control (300 µM, 24 h): -1.04
ESRRA gene expression, fold change over untreated control (300 µM, 24 h): 1.19
ESRRG gene expression, fold change over untreated control (300 µM, 24 h): 1.00
GHR gene expression, fold change over untreated control (300 µM, 24 h): 1.11
HIF1A gene expression, fold change over untreated control (300 µM, 24 h): 1.05
IGFR1 gene expression, fold change over untreated control (300 µM, 24 h): -1.10
IGFR2 gene expression, fold change over untreated control (300 µM, 24 h): -1.00
IL6 gene expression, fold change over untreated control (300 µM, 24 h): -1.51
MRP1 gene expression, fold change over untreated control (300 µM, 24 h): 1.14
MRP2 gene expression, fold change over untreated control (300 µM, 24 h): 1.00
MRP3 gene expression, fold change over untreated control (300 µM, 24 h): 1.44
NFKB1 gene expression, fold change over untreated control (300 µM, 24 h): 1.03
NFKB2 gene expression, fold change over untreated control (300 µM, 24 h): -1.04
NR3C1 gene expression, fold change over untreated control (300 µM, 24 h): 1.00
PGF gene expression, fold change over untreated control (300 µM, 24 h): -1.00
PMM1 gene expression, fold change over untreated control (300 µM, 24 h): 1.05
ROLYR2L gene expression, fold change over untreated control (300 µM, 24 h): 1.00
SLC2A1 gene expression, fold change over untreated control (300 µM, 24 h): -1.13
TGFB1 gene expression, fold change over untreated control (300 µM, 24 h): 1.00
VEGFA gene expression, fold change over untreated control (300 µM, 24 h): 1.27
VEGFB gene expression, fold change over untreated control (300 µM, 24 h): -1.01
WNT4 gene expression, fold change over untreated control (300 µM, 24 h): 1.20
WNT6 gene expression, fold change over untreated control (300 µM, 24 h): -1.09
WNT7B gene expression, fold change over untreated control (300 µM, 24 h): -1.12
mTOR gene expression, fold change over untreated control (300 µM, 24 h): 1.00
number of genes with significantly altered expression (of 46) (300 µM, 24 h, FDR p < 0.1): 15 genes
lowest concentration inducing significant dysregulated expression of placental genes (after 24 h of exposure): 3 µM
